From patent publication US8883788B2, “Fused heterocyclic ring compound” (Takeda Pharmaceutical Company Limited, priority 2010, dated 2014) come the findings set out here.

Molecules are shown by their SMILES.

For the assay, the target named is T1, human PDE10A enzyme (Homo sapiens, UniProt Q9Y233).
T1 construct: Human PDE10A full-length gene was transfected into Sf9 or COS-7 cells; His-tag; made in house; host or cells: Sf9 or COS-7 cells
T1 sequence (Q9Y233 267-1055): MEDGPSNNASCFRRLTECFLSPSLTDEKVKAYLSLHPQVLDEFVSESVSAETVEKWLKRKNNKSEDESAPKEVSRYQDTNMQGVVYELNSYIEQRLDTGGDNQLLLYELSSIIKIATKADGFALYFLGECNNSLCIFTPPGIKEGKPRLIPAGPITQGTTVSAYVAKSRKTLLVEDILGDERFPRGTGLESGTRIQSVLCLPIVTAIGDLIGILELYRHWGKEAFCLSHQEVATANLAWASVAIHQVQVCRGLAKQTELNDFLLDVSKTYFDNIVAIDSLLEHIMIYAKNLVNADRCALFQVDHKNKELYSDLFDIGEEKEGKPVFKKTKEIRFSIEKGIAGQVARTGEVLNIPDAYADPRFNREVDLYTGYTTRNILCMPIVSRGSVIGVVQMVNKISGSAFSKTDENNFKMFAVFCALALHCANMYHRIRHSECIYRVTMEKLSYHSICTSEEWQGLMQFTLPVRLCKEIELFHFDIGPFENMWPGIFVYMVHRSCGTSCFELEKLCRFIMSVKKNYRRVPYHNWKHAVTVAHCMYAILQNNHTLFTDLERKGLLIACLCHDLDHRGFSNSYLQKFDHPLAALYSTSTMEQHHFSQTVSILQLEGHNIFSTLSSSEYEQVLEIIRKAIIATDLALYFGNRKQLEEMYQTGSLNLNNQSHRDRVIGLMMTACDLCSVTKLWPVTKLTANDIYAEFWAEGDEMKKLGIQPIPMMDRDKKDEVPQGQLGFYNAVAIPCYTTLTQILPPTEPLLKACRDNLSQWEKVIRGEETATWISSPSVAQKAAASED
The experiment in a line: PDE10A enzyme activity inhibition test (SPA). Type of assay: biochemical. The settings on record: compound 1 μM, substrate [3H]cGMP, 60 min at room temperature, read-out: inhibition rate (%) (1 μM). As to the method:
Human PDE10A full-length gene was transfected into Sf9 or COS-7 cells. The cells were disrupted and centrifuged, and human PDE10A enzyme was obtained from the residue. The enzyme extracted from Sf9 cells was partially purified using His-tag affinity column. The enzyme was stored at −70° C. until use. The PDE activity was measured using an SPA (Scintillation Proximity Assay) (GE Healthcare). To measure the inhibitory activity of the compound, 10 μL of serially diluted compound was reacted with 20 μL of PDE enzyme in an assay buffer (50 mM HEPES-NaOH, 8.3 mM MgCl2, 1.7 mM EGTA, 0.1% BSA (pH 7.4)) […] at room temperature. The final concentration of DMSO in the reaction mixture was 1 percent. The compounds were evaluated in duplicate in 96-well half-area plates (Corning). To start the reaction, 10 μL of substrate [^3H] cGMP (25 and 50 nM; GE Healthcare and PerkinElmer, respectively) was added to 40 μL. After 60 min of reaction at room temperature, yttrium SPA beads containing zinc sulphate were added (6 mg/mL, 20 μL) to terminate the reaction. After standing still for 1 hr, the measurement was performed using a scintillation counter (PerkinElmer) and the inhibition rate was calculated. The inhibition rate was calculated based on the control containing enzyme and DMSO as 0% and the control without enzyme as 100%.
Regarding `Cn1nccc1-c1nn(-c2ccccc2)cc(OCCCc2nc3ccccc3n2C)c1=O` [Example 5, 5-[3-(1-methyl-1H-benzimidazol-2-yl)propoxy]-3-(1-methyl-1H-pyrazol-5-yl)-1-phenylpyridazin-4(1H)-one], the inhibition at 1 µM stood at 95.4%.

Take `O=c1c(OCc2ccc3cccnc3c2)cn(CC2CC2)nc1-c1ccnn1-c1ccccc1` [Example 18, 1-(cyclopropylmethyl)-3-(1-phenyl-1H-pyrazol-5-yl)-5-(quinolin-7-ylmethoxy)pyridazin-4(1H)-one]: the inhibition at 1 µM came to 20%.

In the case of `O=c1c(OCCCc2cn3ccccc3n2)cn(C2CCC2)nc1-c1ccnn1-c1ccccc1` [Example 24, 1-cyclobutyl-5-(3-imidazo[1,2-a]pyridin-2-ylpropoxy)-3-(1-phenyl-1H-pyrazol-5-yl)pyridazin-4(1H)-one], the inhibition at 1 µM was 100%.

As for `Cn1c(CCCOc2cn(CC3CC3)nc(-c3ccnn3-c3ccccc3)c2=O)nc2cccnc21` [Example 13, 1-(cyclopropylmethyl)-5-[3-(3-methyl-3H-imidazo[4,5-b]pyridin-2-yl)propoxy]-3-(1-phenyl-1H-pyrazol-5-yl)pyridazin-4(1H)-one], the inhibition at 1 µM was found to be 100%.

For `O=c1c(OCCCc2cn3ccccc3n2)cn(CC2CC2)nc1-c1ccnn1-c1ccccc1` [Example 16, 1-(cyclopropylmethyl)-5-(3-imidazo[1,2-a]pyridin-2-ylpropoxy)-3-(1-phenyl-1H-pyrazol-5-yl)pyridazin-4(1H)-one], the inhibition at 1 µM worked out at 98%.

Regarding `Cn1c(OCCOc2cn(C3CCC3)nc(-c3ccnn3-c3ccccc3)c2=O)nc2ccccc21` [Example 23, 1-cyclobutyl-5-{2-[(1-methyl-1H-benzimidazol-2-yl)oxy]ethoxy}-3-(1-phenyl-1H-pyrazol-5-yl)pyridazin-4(1H)-one], the inhibition at 1 µM was 100%.

For the compound `Cn1c(CCCOc2cn(CC(F)(F)F)nc(-c3ccnn3-c3ccccc3)c2=O)nc2ccccc21` [Example 25, 5-[3-(1-methyl-1H-benzimidazol-2-yl)propoxy]-3-(1-phenyl-1H-pyrazol-5-yl)-1-(2,2,2-trifluoroethyl)pyridazin-4(1H)-one], the inhibition at 1 µM was 96%.

`O=c1c(OCCN2CCn3c2nc2ccccc23)cn(C2CCC2)nc1-c1ccnn1-c1ccccc1` [Example 22, 1-cyclobutyl-5-[2-(2,3-dihydro-1H-imidazo[1,2-a]benzimidazol-1-yl)ethoxy]-3-(1-phenyl-1H-pyrazol-5-yl)pyridazin-4 (H)-one]: the inhibition at 1 µM turned out to be 98%.

Turning to `Cn1nccc1-c1nn(-c2ccccc2)cc(OCc2ccc3ccccc3n2)c1=O` [Example 8, 3-(1-methyl-1H-pyrazol-5-yl)-1-phenyl-5-(quinolin-2-ylmethoxy)pyridazin-4(1H)-one], the inhibition at 1 µM is 68.4%.

Consider `Cn1cc(OCCN2CCn3c2nc2ccccc23)c(=O)c(-c2ccnn2-c2ccccc2)n1` [Example 2, 5-[2-(2,3-dihydro-1H-imidazo[1,2-a]benzimidazol-1-yl)ethoxy]-1-methyl-3-(1-phenyl-1H-pyrazol-5-yl)pyridazin-4(1H)-one], for which the inhibition at 1 µM was determined as 101%.

Consider `Cn1cc(OCCCc2cn3ccccc3n2)c(=O)c(-c2ccnn2-c2ccccc2)n1` [Example 11, 5-(3-imidazo[1,2-a]pyridin-2-ylpropoxy)-1-methyl-3-(1-phenyl-1H-pyrazol-5-yl)pyridazin-4(1H)-one], for which the inhibition at 1 µM is 100%.

On to `Cn1cc(OCCCc2nc3cccnc3n2C)c(=O)c(-c2ccnn2-c2ccccc2)n1` [Example 12, 1-methyl-5-[3-(3-methyl-3H-imidazo[4,5-b]pyridin-2-yl)propoxy]-3-(1-phenyl-1H-pyrazol-5-yl)pyridazin-4(1H)-one], for which the inhibition at 1 µM was determined as 102%.

Consider `Cn1cc(OCCOc2nc3ccccc3n2C)c(=O)c(-c2ccnn2-c2ccccc2)n1` [Example 10, 1-methyl-5-{2-[(1-methyl-1H-benzimidazol-2-yl)oxy]ethoxy}-3-(1-phenyl-1H-pyrazol-5-yl)pyridazin-4(1H)-one], for which the inhibition at 1 µM amounted to 95%.

In the case of `O=c1c(OCCn2ccn3ccnc23)cn(CC2CC2)nc1-c1ccnn1-c1ccccc1` [Example 19, 1-(cyclopropylmethyl)-5-[2-(1H-imidazo[1,2-a]imidazol-1-yl)ethoxy]-3-(1-phenyl-1H-pyrazol-5-yl)pyridazin-4(1H)-one], the inhibition at 1 µM was 94%.

For `Cn1c(OCCOc2cn(CC3CC3)nc(-c3ccnn3-c3ccccc3)c2=O)nc2ccccc21` [Example 14, 1-(cyclopropylmethyl)-5-{2-[(1-methyl-1H-benzimidazol-2-yl)oxy]ethoxy}-3-(1-phenyl-1H-pyrazol-5-yl)pyridazin-4 (H)-one], the inhibition at 1 µM is 98%.

On to `Cn1c(CCCOc2cn(C3CCC3)nc(-c3ccnn3-c3ccccc3)c2=O)nc2cccnc21` [Example 21, 1-cyclobutyl-5-[3-(3-methyl-3H-imidazo[4,5-b]pyridin-2-yl)propoxy]-3-(1-phenyl-1H-pyrazol-5-yl)pyridazin-4 (H)-one], for which the inhibition at 1 µM is 107%.

Take `O=c1c(OCCN2CCn3c2nc2ccccc23)cn(CC2CC2)nc1-c1ccnn1-c1ccccc1` [Example 4, 1-(cyclopropylmethyl)-5-[2-(2,3-dihydro-1H-imidazo[1,2-a]benzimidazol-1-yl)ethoxy]-3-(1-phenyl-1H-pyrazol-5-yl)pyridazin-4(1H)-one]: the inhibition at 1 µM is 100%.

As for `O=c1cnn(-c2cccc(C(F)(F)F)c2)cc1OCc1ccc2ccccc2n1` [Example 9, 5-(quinolin-2-ylmethoxy)-1-[3-(trifluoromethyl)phenyl]pyridazin-4(1H)-one], the inhibition at 1 µM is 6.5%.

As for `Cn1c(CCCOc2cn(CC3CC3)nc(-c3ccnn3-c3ccccc3)c2=O)nc2ccccc21` [Example 3, 1-(cyclopropylmethyl)-5-[3-(1-methyl-1H-benzimidazol-2-yl)propoxy]-3-(1-phenyl-1H-pyrazol-5-yl)pyridazin-4(1H)-one], the inhibition at 1 µM stood at 98%.

Consider `O=c1c(OCc2ccc3ccccc3n2)cn(CC2CC2)nc1-c1ccnn1-c1ccccc1` [Example 17, 1-(cyclopropylmethyl)-3-(1-phenyl-1H-pyrazol-5-yl)-5-(quinolin-2-ylmethoxy)pyridazin-4(1H)-one], for which the inhibition at 1 µM was determined as 60%.

As for `O=c1c(OCCOc2ccc3ccccc3n2)cn(CC2CC2)nc1-c1ccnn1-c1ccccc1` [Example 15, 1-(cyclopropylmethyl)-3-(1-phenyl-1H-pyrazol-5-yl)-5-[2-(quinolin-2-yloxy)ethoxy]pyridazin-4(1H)-one], the inhibition at 1 µM was determined as 13%.

As for `Cn1nccc1-c1nn(-c2ccccc2)cc(OCCN2CCn3c2nc2ccccc23)c1=O` [Example 6, 5-[2-(2,3-dihydro-1H-imidazo[1,2-a]benzimidazol-1-yl)ethoxy]-3-(1-methyl-1H-pyrazol-5-yl)-1-phenylpyridazin-4(1H)-one], the inhibition at 1 µM was 97.2%.

On to `O=c1c(OCCN2CCn3c2nc2ccccc23)cn(CC(F)(F)F)nc1-c1ccnn1-c1ccccc1` [Example 27, 5-[2-(2,3-dihydro-1H-imidazo[1,2-a]benzimidazol-1-yl)ethoxy]-3-(1-phenyl-1H-pyrazol-5-yl)-1-(2,2,2-trifluoroethyl)pyridazin-4(1H)-one], for which the inhibition at 1 µM turned out to be 98%.

As to `Cn1cc(OCCCc2nc3ccccc3n2C)c(=O)c(-c2ccnn2-c2ccccc2)n1` [Example 1, 1-methyl-5-[3-(1-methyl-1H-benzimidazol-2-yl)propoxy]-3-(1-phenyl-1H-pyrazol-5-yl)pyridazin-4(1H)-one], the inhibition at 1 µM was determined as 96%.

With `Cn1nccc1-c1nn(-c2ccccc2)cc(OCCc2ccc3ccccc3n2)c1=O` [Example 7, 3-(1-methyl-1H-pyrazol-5-yl)-1-phenyl-5-(2-quinolin-2-ylethoxy)pyridazin-4(1H)-one], the inhibition at 1 µM worked out at 96.8%.

In the case of `Cn1c(CCCOc2cn(CC(F)(F)F)nc(-c3ccnn3-c3ccccc3)c2=O)nc2cccnc21` [Example 26, 5-[3-(3-methyl-3H-imidazo[4,5-b]pyridin-2-yl)propoxy]-3-(1-phenyl-1H-pyrazol-5-yl)-1-(2,2,2-trifluoroethyl)pyridazin-4(1H)-one], the inhibition at 1 µM stood at 101%.

For the compound `Cn1c(CCCOc2cn(C3CCC3)nc(-c3ccnn3-c3ccccc3)c2=O)nc2ccccc21` [Example 20, 1-cyclobutyl-5-[3-(1-methyl-1H-benzimidazol-2-yl)propoxy]-3-(1-phenyl-1H-pyrazol-5-yl)pyridazin-4(1H)-one], the inhibition at 1 µM was 99%.
